Laboratory results: patent US20100174066A1, “PROCESS FOR PREPARING CRYSTALLINE FORM I OF OLANZAPINE” (priority 2005, published 2010)

Experiment: Heat sensitivity of olanzapine Form I wet crystals dried in an air tray drier; Form II content quantified by XRPD
Format: physicochemical
Conditions: 8 hours, LOQ about 0.5% by weight
Description: Olanzapine Form I wet crystals obtained by following the process similar to that given in Example 1 were taken and dried at different temperatures in an air tray drier for 8 hours to check the impact on the crystalline purity of Form I obtained. The results are tabulated below in Table 1:
497.5 mg of olanzapine Form I and 2.5 mg of olanzapine Form II (weight ratio of olanzapine Form Ito Form II of 99.5:0.5) were weighed and mixed with 50.0 mg of lithium fluoride. The mixture was mixed and ground three times using a mortar and pestle made of agate to get a homogeneous fine powder. A maximum quantity of the finely ground sample was packed in a sample holder and this was used as the standard for powder X-ray diffraction analysis.
500 mg of olanzapine Form I test sample was weighed and mixed with 50 mg of lithium fluoride. The mixture was mixed and ground three times using a mortar and pestle made of agate to get a homogeneous fine powder. A maximum quantity of the finely ground sample was packed in a sample holder and this was used as the test sample for the analysis.
The standard and the test sample were analyzed and the intensity at 8.60° (2θ) in the diffractogram of the test sample was compared with respect to that of the 0.5% standard. If the test sample intensity at 8.60° (2θ) is more than that of the 0.5% standard, then the presence of Form II in Form I is more than 0.5%. If the test sample intensity at 8.60° (2θ) is less than that of the 0.5% standard, then the presence of Form II in Form I is less than 0.5%.

For `Cc1cc2c(s1)Nc1ccccc1N=C2N1CCN(C)CC1` [Olanzapine Form I, 2-methyl-4-(4-methyl-1-piperazinyl)-10H-thieno[2,3-b][1,5]benzodiazepine], the “Form II content (%)” value (drying temperature 60 °C) was “Less than 0.5%”, the “Form II content (%)” value (drying temperature 75-80 °C) was “Less than 0.5%” and the “Form II content (%)” value (drying temperature 100 °C) was “Less than 0.5%”. For the same compound, the “Form II content (%)” value (drying temperature 125 °C) was “More than 0.5%”, the “Form II content (%)” value (drying temperature 150 °C) was “More than 0.5%” and the “Form II content (%)” value (drying temperature 180 °C) was “More than 0.5%”.
